Assay results published in patent US20020142008A1, “Immunogenic pili presenting foreign peptides, their production and use” (priority 2000, published 2002).
Ends that are not written are not given here.

tested on: homologous piliated Escherichia coli challenge strains (renal and/or bladder colonization); experiment: Intravesicular BALB/c experimental model of pyelonephritis and cystitis, pilin A synthetic peptide conjugate vaccines; format: in vivo; conditions: BALB/c mice, thyroglobulin and BSA conjugates ~200 ug i.m. day 0 and 14 in incomplete Freund's adjuvant; bladder inoculation 10^8 CFU homologous piliated strain; renal/bladder colonization at 48 hours; protection = >90% of cohort no growth and none >500 CFU per 0.1 gram
Description: The intravesicular BALB/c experimental model of pyelonephritis and cystitis, as originally described by O'Hanley, was employed to evaluate the protective capacity of structural pilin synthetic peptide conjugate vaccines to prevent subsequent renal and/or bladder colonization by homologous piliated strains at 48 hours after bacterial bladder inoculation. Cohorts of 20 mice per group were vaccinated via intramuscular administration on two occasions with the experimental thyroglobulin and bovine serum albumin conjugate pilin A vaccines (i.e., day 0 and day 14). Each intramuscular dose of experimental vaccine consisted of ^˜200 ug in 100 ul saline emulsified in 100 ul incomplete Freund's adjuvant. Control vaccines consisted of thyroglobulin and bovine serum albumin emulsified in saline and incomplete Freund's adjuvant. These control vaccines were administered in similar fashion and schedule as the experimental vaccines. Challenge for pilin A vaccinated mice entailed bladder inoculation of 10^8 CFU of an Escherichia coli strain that expressed homologous pili. In contrast, the cohort size for control animals was 5 per challenge strain. The table below summarizes the challenge strategy.
Protection against subsequent renal colonization and bladder colonization by the challenge strain was defined by >90% of the experimental animals in a cohort (i.e., 18 of 20 vaccinated experimental mice) having no bacterial growth from aliquots of homogenized whole right kidney and aliquots of homogenized whole bladders and none of the experimental animals having heavy bacterial growth from the challenge strain in renal or bladder specimens (viz., the absence of ++++ colonization density or >500 CFU of the challenge strain per 0.1 gram of renal or bladder tissue) compared to heavy growth of the challenge strain in both renal and bladder specimens (++++ colonization density or >500 CFU per 0.1 gm of renal or bladder tissue) by the challenge strain in >80% of control animals (i.e. >4 of 5 control mice).

| Sequence | Homologous Protection |
| --- | --- |
| IPEGQGKVT (also: conjugated to thyroglobulin or BSA) [F12 pilin A synthetic peptide conjugated to thyroglobulin or bovine serum albumin] | Yes |
| IPQGQGKVTFNGTV (also: conjugated to carrier protein) [F11 pilin A synthetic peptide conjugate vaccine] | Yes |
| NFKKAAGGGGAKT (also: conjugated to thyroglobulin or BSA) [F72 pilin A synthetic peptide conjugated to thyroglobulin or bovine serum albumin] | Yes |
| NFKKAATPGGAAKT (also: conjugated to thyroglobulin or BSA) [F9 pilin A synthetic peptide conjugated to thyroglobulin or bovine serum albumin] | Yes |
| NFKQLQGGAAKKG (also: conjugated to thyroglobulin or BSA) [F71 pilin A synthetic peptide conjugated to thyroglobulin or bovine serum albumin] | Yes |
| NGGTVHFKGEVVN (also: conjugated to thyroglobulin or BSA) [F1C structural pilin synthetic peptide conjugated to thyroglobulin or bovine serum albumin] | Yes |
| PQGQGEVA (also: conjugated to thyroglobulin or BSA) [F71 pilin A synthetic peptide conjugated to thyroglobulin or bovine serum albumin] | Yes |
| PQGQGEVT (also: conjugated to thyroglobulin or BSA) [F71 pilin A synthetic peptide conjugated to thyroglobulin or bovine serum albumin] | Yes |
| PQGQGKVT (also: conjugated to carrier protein) [F72 and F13 pilin A synthetic peptide conjugate vaccine] | Yes |
| TTVNGGTVH (also: conjugated to carrier protein) [F9 pilin A synthetic peptide conjugate vaccine] | Yes |
| TTVTVNGGTVHF (also: conjugated to thyroglobulin or BSA) [F1 structural pilin synthetic peptide conjugated to thyroglobulin or bovine serum albumin] | Yes |

tested on: experimental pyelonephritis; experiment: BALB/c murine model of experimental pyelonephritis, F13 peptide conjugate vaccines; format: in vivo; conditions: BALB/c mice, serial parenteral administration of vaccine, intravesicular challenge

| Sequence | protection in experimental pyelonephritis |
| --- | --- |
| AKFGGMGAKKG (also: conjugated to carrier protein) [F13 structural pilin peptide conjugate vaccine] | protective |
| PQGQGKVT (also: conjugated to carrier protein) [F72 and F13 pilin A synthetic peptide conjugate vaccine] | protective |
